# Experimental data reported in patent US9175003B2, “Substituted azoanthracene derivatives and intermediates for preparation thereof” (TransTech Pharma, LLC, priority 2009, dated 2015).
# Molecular target: human GLP-1 receptor (Homo sapiens (Human), UniProt P43220)
# Settings: read-out: Mean EC50; cAMP, HTRF detection, 30 min at 37° C., HEK-293 cells expressing cloned human GLP-1 receptor
# Chain of human GLP-1 receptor (P43220 24-463): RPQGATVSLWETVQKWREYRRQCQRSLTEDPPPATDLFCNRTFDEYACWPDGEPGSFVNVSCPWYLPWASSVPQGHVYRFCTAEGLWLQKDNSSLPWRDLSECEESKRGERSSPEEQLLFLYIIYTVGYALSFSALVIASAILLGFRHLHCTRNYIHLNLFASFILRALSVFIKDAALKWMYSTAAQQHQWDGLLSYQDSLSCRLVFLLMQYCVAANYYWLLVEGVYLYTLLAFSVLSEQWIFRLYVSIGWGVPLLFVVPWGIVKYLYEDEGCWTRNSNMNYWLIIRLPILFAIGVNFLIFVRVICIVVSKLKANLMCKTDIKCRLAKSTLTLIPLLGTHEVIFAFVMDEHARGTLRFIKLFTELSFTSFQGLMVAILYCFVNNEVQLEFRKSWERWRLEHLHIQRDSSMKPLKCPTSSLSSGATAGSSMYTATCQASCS
row,Structure (SMILES),EC50 [µM]
1,"Cc1nccc(-c2ccc(C[C@H](NC(=O)[C@@H]3Cc4cc5c(cc4CN3C(=O)N[C@H](C)c3ccccc3)O[C@@H](c3ccc(OCCc4ccc(Cl)cc4)cc3)CO5)C(=O)O)cc2)c1C [Example 388, (S)-2-{[(3S,8S)-3-{4-[2-(4-Chloro-phenyl)-ethoxy]-phenyl}-7-((R)-1-phenyl-ethylcarbamoyl)-2,3,6,7,8,9-hexahydro-[1,4]dioxino[2,3-g]isoquinoline-8-carbonyl]-amino}-3-[4-(2,3-dimethyl-pyridin-4-yl)-phenyl]-propionic acid]",0.179
2,"Cc1nccc(-c2ccc(C[C@H](NC(=O)[C@@H]3Cc4cc5c(cc4CN3C(=O)N[C@H](C)c3ccccc3)O[C@@H](c3ccc(O[C@H]4CC[C@H](C(C)(C)C)CC4)cc3)CO5)C(=O)O)cc2)c1C [Example 389, (S)-2-{[(3S,8S)-3-[4-(trans-4-tert-Butyl-cyclohexyloxy)-phenyl]-7-((R)-1-phenyl-ethylcarbamoyl)-2,3,6,7,8,9-hexahydro-[1,4]dioxino[2,3-g]isoquinoline-8-carbonyl]-amino}-3-[4-(2,3-dimethyl-pyridin-4-yl)-phenyl]-propionic acid]",0.191
3,"Cc1nccc(-c2ccc(C[C@H](NC(=O)[C@@H]3Cc4cc5c(cc4CN3C(=O)N[C@H](C)c3ccccc3)O[C@@H](c3ccc(OCc4cc(Cl)cc(Cl)c4)cc3)CO5)C(=O)O)cc2)c1C [Example 393, (S)-2-{[(3S,8S)-3-[4-(3,5-dichloro-benzyloxy)-phenyl]-7-((R)-1-phenyl-ethylcarbamoyl)-2,3,6,7,8,9-hexahydro-[1,4]dioxino[2,3-g]isoquinoline-8-carbonyl]-amino}-3-[4-(2,3-dimethyl-pyridin-4-yl)-phenyl]-propionic acid]",0.074
4,"Cc1nccc(-c2ccc(C[C@H](NC(=O)[C@@H]3Cc4cc5c(cc4CN3C(=O)N[C@H](C)c3ccccc3)O[C@@H](c3ccc(OCCc4ccc(Cl)c(Cl)c4)cc3)CO5)C(=O)O)cc2)c1C [Example 396, (S)-2-{[(3S,8S)-3-{4-[2-(3,4-Dichloro-phenyl)-ethoxy]-phenyl}-7-((R)-1-phenyl-ethylcarbamoyl)-2,3,6,7,8,9-hexahydro-[1,4]dioxino[2,3-g]isoquinoline-8-carbonyl]-amino}-3-[4-(2,3-dimethyl-pyridin-4-yl)-phenyl]-propionic acid]",0.156
5,"Cc1nccc(Oc2ccc(C[C@H](NC(=O)[C@@H]3Cc4cc5c(cc4CN3C(=O)OC(C)(C)C)O[C@@H](c3ccc(OCc4ccc(Cl)c(Cl)c4)cc3)CO5)C(=O)O)cc2)c1C [Example 403, (3S,8S)-8-{(S)-1-Carboxy-2-[4-(2,3-dimethyl-pyridin-4-yloxy)-phenyl]-ethylcarbamoyl}-3-[4-(3,4-dichloro-benzyloxy)-phenyl]-2,3,8,9-tetrahydro-6H-[1,4]dioxino[2,3-g]isoquinoline-7-carboxylic acid tert-butyl ester]",0.138
6,"Cc1nc(C(=O)N2Cc3cc4c(cc3C[C@H]2C(=O)N[C@@H](Cc2ccc(-c3ccnc(C)c3C)cc2)C(=O)O)OC[C@H](c2ccc(OCC3CCCCC3)cc2)O4)c(C)o1 [Example 405, (S)-2-{[(3S,8S)-3-(4-Cyclohexylmethoxy-phenyl)-7-(2,5-dimethyl-oxazole-4-carbonyl)-2,3,6,7,8,9-hexahydro-[1,4]dioxino[2,3-g]isoquinoline-8-carbonyl]-amino}-3-[4-(2,3-dimethyl-pyridin-4-yl)-phenyl]-propionic acid]",0.213
7,"Cc1nccc(-c2ccc(C[C@H](NC(=O)[C@@H]3Cc4cc5c(cc4CN3C(=O)c3cccc(F)c3)O[C@@H](c3ccc(OCc4ccc(Cl)c(Cl)c4)cc3)CO5)C(=O)O)cc2)c1C [Example 409, (S)-2-{[(3S,8S)-3-[4-(3,4-Dichloro-benzyloxy)-phenyl]-7-(3-fluoro-benzoyl)-2,3,6,7,8,9-hexahydro-[1,4]dioxino[2,3-g]isoquinoline-8-carbonyl]-amino}-3-[4-(2,3-dimethyl-pyridin-4-yl)-phenyl]-propionic acid]",0.024
